Data reported in patent publication US20210292330A1, “PYRROLIDINE-FUSED HETEROCYCLES” (Erasca, Inc., priority 2020, published 2021).

Biological target: T1, KRAS 4B G12C protein (Homo sapiens, UniProt P01116, G12C)
T1 construct: This protein contained 188 amino acids in total, including an N-terminal 6-Histidine tag; made in house; host or cells: E. coli BL21
Assay: In vitro covalent adduct formation (CAF) assay by LC-MS
Assay type: binding
Conditions: compound 10 μM, protein 5 μM, 22° C., percentage of protein bound by the compound
Outline: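 Percent of protein covalently modified was quantified from intact-mass LC-MS ratios of free versus adducted protein, adducts within 1 Da of expected mass. Reactions: 10 μM compound, 5 μM His-TEV-KRAS 4B G12C (1-169) in TBS pH 7.4, 4% DMSO, 22° C., one hour, run in duplicate.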

Row | SMILES | CAF (10 minutes/60 minutes) at 10 micromolar: 10 minutes | CAF (10 minutes/60 minutes) at 10 micromolar: 60 minutes
1 | C=CC(=O)N1CCN(c2nc(OC[C@@H]3CCCN3C)nc3c2CN(S(=O)(=O)c2cccc4ccccc24)C3)C[C@@H]1CC#N [1-238] | 73% | 95%
2 | C=CC(=O)N1CCN(c2nc(OC[C@@H]3CCCN3C)nc3c2CN(Cc2c(C)cccc2C)C3)[C@@H](C)C1 [1-3] | 6% | 33%
3 | C=CC(=O)N1CCN(c2nc(OC[C@@H]3CCCN3C)nc3c2CN(Cc2cc(O)ccc2F)C3)[C@@H](C)C1 [1-50] | 53% | 92%
4 | C=CC(=O)N1CCN(c2nc(OC[C@@H]3CCCN3C)nc3c2CN(C2CCc4ccccc42)C3)[C@@H](C(N)=O)C1 (stereo partly shown) [1-193] | 7% | 31%
5 | C=C(F)C(=O)N1CCN(c2nc(OCCC(F)F)nc3c2CN(C2CCc4ccccc42)C3)C[C@@H]1CC#N (stereo partly shown) [1-167] | – | NA/ 0%
6 | C=CC(=O)N1CCN(c2nc(O[C@@H]3CN(C)C[C@H]3OC)nc3c2CN(Cc2cc(O)ccc2Cl)C3)C2COCC21 (stereo partly shown) [1-336] | 0% | 9%
7 | C=CC(=O)N1CCN(c2nc(OC[C@@H]3CCCN3C)nc3c2CN(Cc2c(Cl)ccc4nc[nH]c24)C3)C[C@@H]1CC#N [1-229] | 94% | 95%
8 | C=CC(=O)N1C[C@H](C)N(c2nc(OC[C@@H]3CCCN3C)nc3c2CN(Cc2c(C)ccc(O)c2C)C3)C[C@H]1C [1-21] | 20% | 63%
9 | C=C(F)C(=O)N1CCN(c2nc(OC[C@@H]3CCCN3C)nc3c2CN(Cc2cc(NC)ncc2Cl)C3)C[C@@H]1CC#N [1-340] | 0% | 7%
10 | C=CC(=O)N1CCN(c2nc(OC[C@@H]3CCCN3C)nc3c2CN(Cc2cc(O)c(Cl)cc2Cl)C3)C[C@@H]1CC#N [1-330] | 52% | 86%
11 | C=CC(=O)N1CCN(c2nc(OC[C@@H]3CCCN3C)nc3c2CN(C2CCc4ccccc42)C3)C[C@@H]1CS(C)(=O)=O (stereo partly shown) [1-200] | 0% | 2%
12 | C=CC(=O)N1CCN(c2nc(O[C@@H]3CN(C)C[C@H]3OC)nc3c2CN(C2CCc4ccccc42)C3)C2COCC21 (stereo partly shown) [1-227] | 0%/ 0% | 0%/ 0%
13 | C=CC(=O)N1CCN(c2nc(OC[C@@H]3CCCN3C)nc3c2CN(C2CCc4ccccc42)C3)C[C@@H]1C(O)C(F)(F)F (stereo partly shown) [1-118] | 0%/ 0% | 0%/ 0%
14 | C=CC(=O)N1CC2CCC1CN2c1nc(OC[C@@H]2CCCN2C)nc2c1CN(Cc1cc(OC)ccc1Cl)C2 (stereo partly shown) [1-161] | 0%/ 0% | 0%/ 0%
15 | C=CC(=O)N1CCN(c2nc(OC[C@@H]3CCCN3C)nc3c2CN(Cc2cc(O)cc4ccccc24)C3)C[C@@H]1CC#N [1-180] | 94% | 96%
16 | C=CC(=O)N1CCN(c2nc(OC[C@@H]3CCC(=O)N3C)nc3c2CN(C2CCc4ccccc42)C3)C[C@@H]1CC#N (stereo partly shown) [1-122] | 21% | 57%
17 | C=CC(=O)N1CCN(c2nc(OC[C@@H]3CCCN3C)nc3c2CN(Cc2cc(O)ccc2C)C3)[C@@H](C)C1 [1-1, 1-[(3S)-4-{6-[(5-hydroxy-2-methylphenyl)methyl]-2-{[(2S)-1-methylpyrrolidin-2-yl]methoxy}-5H,7H-pyrrolo[3,4-d]pyrimidin-4-yl}-3-methylpiperazin-1-yl]prop-2-en-1-one] | 69% | 93%
18 | C=CC(=O)N1CCN(c2nc(O[C@@H]3CN(C)C[C@H]3OC)nc3c2CN(C2CCc4ccccc42)C3)C2CS(=O)(=O)CC21 (stereo partly shown) [1-228] | 0%/ 0% | 0%/ 0%
19 | C=C(F)C(=O)N1CCN(c2nc(OC[C@@H]3CCCN3C)nc3c2CN(Cc2c(C)cc(C)c(O)c2C)C3)C[C@@H]1CC#N [1-325] | 0% | 3%
20 | C=CC(=O)N1CCN(c2nc(OC[C@@H]3CCCN3C)nc3c2CN(c2cccc4cccc(C)c24)C3)C[C@@H]1CC(F)(F)F [1-48] | 0% | 1%
21 | C=CC(=O)N1CCN(c2nc(OC[C@@H]3CCCN3C)nc3c2CN(Cc2cc(O)ccc2CC)C3)C[C@@H]1CC#N [1-184] | 96% | 97%
22 | C=CC(=O)N1CCN(c2nc(OC[C@@H]3CCCN3C)nc3c2CN(Cc2cc(Cl)ccc2Cl)C3)C[C@@H]1CC#N [1-28] | 94% | 98%
